Key:
[1] = biological target: T1, AChE from electric eel (Electrophorus electricus) (Electrophorus electricus, UniProt O42275); experiment: HPTLC-(Ox)-AChE-I assay, immersion method (plates immersed in AChE solution); type: biochemical; settings: without oxidation
T1 construct: purchased Sigma-Aldrich GmbH (Steinheim, Germany)
Experimental: (§1) LiChrospher 10 × 20 cm HPTLC Silica gel 60 F254s plates (Merck, Darmstadt, Germany) with a layer thickness of 170–190 µm and spherical silica particles with a size of 7 µm were used. The HPTLC plates were immersed twice in 2-propanol for 20 min, each time followed by a drying step at room temperature for 20 min. The plates then were pre-developed with methanol, dried for 20 min at room temperature, heated at 105 °C for 20 min, and stored in a desiccator for further use. The automatic TLC Sampler 4 (ATS 4, CAMAG AG, Muttenz, Switzerland) was used for sample application. The desired sample volumes were sprayed as 6-mm-wide bands onto the HPTLC plates with an application speed of 300 nL/s. The distances of the exterior bands from the edges of the plates were 15 mm. The distance from the bottom edge was 8 mm for all bands. Methanol was used as rinsing solvent. The following further application parameters were used: filling speed 15 µL/s, pre-dosage volume 200 nL, retraction volume 200 nL, rinsing vacuum time 4 s, filling vacuum time 0 s, rinsing cycles 2, and filling cycles 1. The development of the HPTLC plates was realized by the Automated Multiple Development 2 (AMD 2, CAMAG, Muttenz, Switzerland). The OTPs, their oxons, and environmental samples were separated with an eluent mixture of cyclohexane, dichloromethane, and acetone in different proportions and with increasing migration distances (Fig. S2). After each development step, a drying step of 3 min under vacuum followed. The final migration distance was 80 mm and the whole procedure took approximately 45 min. In addition, a simpler development process was used containing only the last step of the previous described method.
(§2) After chromatographic development, 10 mL of freshly prepared NBS (100 µg/mL) was sprayed onto the HPTLC plates with a glass reagent sprayer, followed by a 5-min incubation at room temperature. The following AChE-I assay was performed in parts according to Mendoza et al., Stütz et al., and Weins and Jork. AChE was buffered in TRIS/HCl at a pH of 7.8 (2.5 U/mL). The AChE solution was either sprayed onto the HPTLC plates with a glass reagent sprayer until the plates were evenly moist (approx. 10 mL) or the plates were immersed in the AChE solution using the Chromatogram Immersion Device 3 (CID 3, CAMAG, Muttenz, Switzerland). The immersion volume, speed, time, and depth were approx. 200 mL, 2.5 cm/s, 2 s, and approx. 85 mm, respectively. Afterward, the plates were placed separately in closed plastic boxes, which contained paper towels moistened with water to gain a saturated atmosphere. An incubation at 37 °C for 5 min followed. The substrate indoxyl acetate was freshly prepared in methanol at a concentration of 20 mg/mL and 5 mL was sprayed onto the HPTLC plates with a glass reagent sprayer. During 45-min incubation time at room temperature, AChE cleaves the substrate into indoxyl and acetate. The indoxyl reacts with oxygen to the blue indigo dye. When AChE was inhibited, no indigo was produced and the spot stayed white. The TLC Scanner 3 (CAMAG, Muttenz, Switzerland) was used to scan each track on the plates at 670 nm using the fluorescence mode without optical filter. The CAMAG-embedded software Wincats (Vers. 1.4.9) was used to provide chromatograms of each track and to evaluate inhibition zones.
Several amounts of an OTP mix and an oxon mix were applied on HPTLC plates (Tab. S2) and tested as described in the “Combination of HPTLC and AChE-inhibition assay” section. Three plates were used for each dilution series. The application volume was 10 µL for investigating OTPs with following oxidation and 100 µL for testing OTPs without following oxidation. The application volume for the oxons was 10 µL. They were tested without oxidation step also in triplicates. The peak heights were used for evaluation. Only peaks that have a signal-to-noise ratio ≥ 3 were considered in the evaluation. The height next to the respective peak defines the noise. […]

[2] = biological target: T1, AChE from electric eel (Electrophorus electricus); experiment: HPTLC-(Ox)-AChE-I assay, spray method (AChE sprayed onto plates); type: biochemical
Experimental: as §1
as §2, with “The” for “After chromatographic development, 10 mL of freshly prepared NBS (100 µg/mL) was sprayed onto the HPTLC plates with a glass reagent sprayer, followed by a 5-min incubation at room temperature. The”
Several amounts of an OTP mix and an oxon mix were applied on HPTLC plates (Tab. S2) and tested as described in the “Combination of HPTLC and AChE-inhibition assay” section. Three plates were used for each dilution series. The application volume was 10 µL for investigating OTPs with following oxidation and 100 µL for testing OTPs without following oxidation. The application volume for the oxons was 10 µL. They were tested without oxidation step also in triplicates. The peak heights were used for evaluation. Only peaks that have a signal-to-noise ratio ≥ 3 were considered in the evaluation. The height next to the respective peak defines the noise.

[3] = biological target: T1, AChE from electric eel (Electrophorus electricus); experiment: Recovery of AChE-I effect peak area in spiked water samples after SPE and HPTLC-Ox-AChE-I (spray); settings: for Recovery of the effect peak area related to positive control (100%): spiked 100 ng OTP, SPE, 10 ng/spot, NBS oxidation, spray, ± SD, n = 4; for AChE-I effect recoveries in comparison to the positive control, range over samples: samples from stormwater retention basin and receiving stream, after SPE and HPTLC-Ox-AChE-I
Experimental: The samples were enriched by SPE within 24 h after sampling. Moreover, the field blank and water for a SPE blank were enriched in the same way. For additional matrix investigations, 1 mL malathion, parathion, and chlorpyrifos (100 ng/mL in methanol) were spiked into native samples taken in August 2020 and a water control before being loaded on the SPE cartridges. The cartridges (150 mg, Oasis HLB 6 cc, Waters GmbH, Eschborn, Germany) were conditioned with methanol (2 × 5 mL) and equilibrated with water (2 × 5 mL), before being loaded with 1000 ± 5 mL sample (the exact volume was determined by weighting) through a polytetrafluoroethylene tube. After drying the cartridges under vacuum, they were stored at − 18 °C until further usage. The cartridges were eluted with methanol (5 × 5 mL) that was evaporated afterward at 60 °C under a gentle nitrogen gas stream. The dried extracts were redissolved in 1 mL methanol to achieve a nominal 1000-fold enrichment.
The extracts, spiked samples, positive controls (PC: mix of malathion, parathion, and chlorpyrifos), and blanks were tested with the HPTLC-Ox-AChE-I method as described in the “Combination of HPTLC and AChE-inhibition assay” section. Each sample was tested in duplicates on two HPTLC plates (n = 4). The application volume was 100 µL resulting in a PC of 2000 ng/spot. The resulting amounts for the matrix investigation were 1000 and 10 ng/spot for the PCs and 10 ng/spot for the spiked samples. The matrix investigation was performed with and without the oxidation step. Excel was used to relate the peak areas of the spiked samples to the peak areas of the PCs (10 ng/spot). Differences between both approaches (oxidation and no oxidation) were shown by comparing the results of the spiked samples and PCs.

[4] = spray method, without oxidation
[5] = Spiked water (ultrapure water control)
[6] = sampling point Stormwater basin
[7] = OTPs 100 µL, oxons 10 µL applied, peak heights, n = 3
[8] = spray method, without oxidation, OTPs 100 µL, oxons 10 µL applied, peak heights, n = 3

T1 sequence (O42275 24-633): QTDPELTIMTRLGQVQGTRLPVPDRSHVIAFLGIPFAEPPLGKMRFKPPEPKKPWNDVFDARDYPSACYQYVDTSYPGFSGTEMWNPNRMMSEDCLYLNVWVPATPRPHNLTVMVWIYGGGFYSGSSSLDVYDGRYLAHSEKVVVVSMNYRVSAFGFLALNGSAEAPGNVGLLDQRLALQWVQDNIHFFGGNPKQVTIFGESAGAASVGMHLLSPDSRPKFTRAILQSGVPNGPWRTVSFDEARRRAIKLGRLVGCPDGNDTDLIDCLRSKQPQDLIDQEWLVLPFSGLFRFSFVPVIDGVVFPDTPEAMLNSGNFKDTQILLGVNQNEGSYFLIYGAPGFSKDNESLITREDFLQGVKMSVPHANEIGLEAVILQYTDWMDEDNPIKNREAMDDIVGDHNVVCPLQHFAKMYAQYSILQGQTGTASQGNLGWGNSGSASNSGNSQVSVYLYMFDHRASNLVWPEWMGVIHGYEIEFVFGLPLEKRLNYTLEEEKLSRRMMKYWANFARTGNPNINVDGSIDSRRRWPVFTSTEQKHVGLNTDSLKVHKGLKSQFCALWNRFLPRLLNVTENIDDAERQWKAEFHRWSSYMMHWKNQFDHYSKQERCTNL

| SMILES | LOD immersion method (first detected AChE-I peak with signal-to-noise ratio ≥ 3) [1] | LOD spray method (first detected AChE-I peak with signal-to-noise ratio ≥ 3) [2, 4] | Recovery of the effect peak area related to positive control (100%) [3, 5] | AChE-I effect recoveries in comparison to the positive control, range over samples [3] | Recovery of the effect peak area related to positive control (100%) ([3]; sampling point Downstream) | Recovery of the effect peak area related to positive control (100%) [3, 6] | Recovery of the effect peak area related to positive control (100%) ([3]; sampling point Upstream) | IC10 (10% AChE inhibition), best fit [1, 7] | IC20 (20% AChE inhibition), best fit [1, 7] | IC50 (50% AChE inhibition), best fit [1, 7] | IC80 (80% AChE inhibition), best fit [1, 7] | IC10 (10% AChE inhibition), best fit [2, 8] | IC20 (20% AChE inhibition), best fit [2, 8] | IC50 (50% AChE inhibition), best fit [2, 8] | IC80 (80% AChE inhibition), best fit [2, 8] | Effect of higher NBS concentration on AChE on the HPTLC plate ([2]; 1 mg/mL NBS tested for oxidation on HPTLC plate, application method not stated) |
| --- | --- | --- | --- | --- | --- | --- | --- | --- | --- | --- | --- | --- | --- | --- | --- | --- |
| CCOP(=S)(OCC)Oc1nc(Cl)c(Cl)cc1Cl [Chlorpyrifos, chlorpyrifos] | 500 ng/spot | 250 ng/spot | 63 ± 4% | 69–78% | 69 ± 5% | 74 ± 5% | 78 ± 7% |  |  |  |  |  |  |  |  |  |
| CCOC(=O)CC(SP(=S)(OC)OC)C(=O)OCC (centres unmarked) [Malathion, malathion] | 250 ng/spot | 250 ng/spot | 85 ± 6% |  | 87 ± 12% | 81 ± 8% | 92 ± 11% | 313 ng/spot | 536 ng/spot | 1343 ng/spot | 3363 ng/spot | 212 ng/spot | 493 ng/spot | 2096 ng/spot | 8910 ng/spot |  |
| O=C1CCC(=O)N1Br [NBS, N-Bromosuccinimide] |  |  |  |  |  |  |  |  |  |  |  |  |  |  |  | lower activity or inhibition of AChE |
| CCOP(=S)(OCC)Oc1ccc([N+](=O)[O-])cc1 [Parathion, parathion] | 500 ng/spot | 100 ng/spot | 74 ± 3% | 75–82% | 79 ± 13% | 75 ± 9% | 82 ± 10% |  |  |  |  |  |  |  |  |  |
